Test results published in patent US12590108B2, “Boracic acid compound” (Phaeno Therapeutics Co., Ltd, priority 2020, dated 2026).
Read-outs that look alike come from different tables or passages of the source.

Experiment: Pharmacokinetics of the compound in rats (intravenous and oral)
Type: in vivo
Settings: male, SD, plasma, rat; for Vd: read-out: Vdss
Protocol: The pharmacokinetic characteristics of the compound in rodents after intravenous injection and oral administration were tested by standard protocol. Specifically, the fasting SD male rats in the experiment were given the candidate compounds by intravenous injection and oral administration. Both oral preparation and intravenous preparation were prepared into 10 mg/mL or 30 mg/mL clear solutions with physiological saline and were administered by intravenous bolus or gavage for 5 minutes. Plasma samples were collected and analyzed by LC-MS/MS method, and pharmacokinetic parameters were calculated.

[1] = 100 mg/kg, intravenous bolus 100 mpk
[2] = 300 mg/kg, intravenous bolus 300 mpk

- AUC(0-t) [1]: 549 µg·h/mL
- C0 [1]: 580 µg/mL
- clearance [1]: 3.02 mL/min/kg
- half-life [1]: 3.9 h
- Vd [1]: 0.583 L/kg
- AUC(0-t) (100 mg/kg, oral 100 mpk): 278 µg·h/mL
- Cmax (100 mg/kg, oral 100 mpk): 35.2 µg/mL
- Tmax (100 mg/kg, oral 100 mpk): 2 h
- half-life (100 mg/kg, oral 100 mpk): 4.99 h
- bioavailability (100 mg/kg, oral 100 mpk, AUC0-inf (100 mpk PO)/AUC0-inf (100 mpk IV)): 52.2%
- AUC(0-t) [2]: 1160 µg·h/mL
- C0 [2]: 1390 µg/mL
- clearance [2]: 4.29 mL/min/kg
- half-life [2]: 4.56 h
- Vd [2]: 0.96 L/kg
SMILES: CCOc1ccc2c(c1C(=O)O)O[B-](O)(O)CO2 [Compound 15]
